pIC50: −log10 of the molar value. Read-outs that look alike come from different tables or passages of the source.
How the values were obtained:
XIAP BIR2-3 = biological target: T1, XIAP BIR2-3 (Homo sapiens, UniProt P98170, C202A/C213G); assay: XIAP-BIR2-3 dimeric SMAC Peptide Homogeneous Time Resolved Fluorescence (HTRF) Assay; type: binding
T1 construct: His-BIR2-3 (125-356, C202A/C213G, XIAP)
Procedure: B. […] Assays were performed in black, flat-bottom, 384-well plates. […] Compounds were dissolved at 3 mM in dimethylsulfoxide (DMSO) and evaluated at eleven serially diluted concentrations. IC50 and Ki values were derived by non-linear regression analysis.

XIAP BIR3 = biological target: T2, XIAP BIR3 (Homo sapiens, UniProt P98170); assay: XIAP-BIR3/SMAC Homogeneous Time Resolved Fluorescence (HTRF) Assay; type: binding
T2 construct: His-BIR3 (241-356, XIAP)
T2 sequence (P98170 241-356): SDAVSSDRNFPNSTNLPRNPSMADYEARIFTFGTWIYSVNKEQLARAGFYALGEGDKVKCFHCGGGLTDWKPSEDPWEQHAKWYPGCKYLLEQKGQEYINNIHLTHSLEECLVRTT
Method in brief: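 Competition HTRF between XIAP-BIR3 and SMAC; reaction 60 min at room temperature, then anti-6×His-terbium Fab detection for a further 30 min.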

[1] = 0.5 nM N-His-BIR2-3 (125-356, C202A/C213G, XIAP), 20 nM fluorescein labeled dimeric SMAC peptide, HTRF signal, read-out: XIAP BIR2-3 IC50
[2] = 1 nM N-His-BIR3 (241-356, XIAP), 5 nM fluorescein labeled SMAC peptide, HTRF signal, read-out: XIAP BIR3 IC50

T1 sequence (P98170 125-356 C202A/C213G): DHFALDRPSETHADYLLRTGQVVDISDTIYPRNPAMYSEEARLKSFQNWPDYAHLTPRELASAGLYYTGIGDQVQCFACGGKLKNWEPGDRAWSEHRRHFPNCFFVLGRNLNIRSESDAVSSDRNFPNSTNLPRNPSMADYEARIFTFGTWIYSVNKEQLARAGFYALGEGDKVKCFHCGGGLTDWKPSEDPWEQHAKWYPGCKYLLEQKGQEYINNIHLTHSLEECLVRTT

SMILES | pIC50 (XIAP BIR2-3; [1]) | pIC50 (XIAP BIR3; [2]) | pIC50 (XIAP BIR2-3) | pIC50 (XIAP BIR3)
CN[C@@H](C)C(=O)N[C@H](C(=O)N1Cc2ccc(C(=O)N[C@H]3C[C@@H](C(=O)N[C@@H]4CCCc5ccccc54)N(C(=O)[C@@H](NC(=O)[C@H](C)NC)C(C)(C)C)C3)cc2C[C@@H]1C(=O)N[C@@H]1CCCc2ccccc21)C(C)(C)C [Example 26, (R)-2-((S)-3,3-Dimethyl-2-((S)-2-(methylamino)propanamido)butanoyl)-N6-((3S,5S)-1-((S)-3,3-dimethyl-2-((S)-2-(methylamino)propanamido)butanoyl)-5-(((R)-1,2,3,4-tetrahydronaphthalen-1-yl)carbamoyl)pyrrolidin-3-yl)-N^3—((R)-1,2,3,4-tetrahydronaphthalen-1-yl)-1,2,3,4-tetrahydroisoquinoline-3,6-dicarboxamide] | 6.71 | 7.96 |  | 
CN[C@@H](C)C(=O)N[C@H](C(=O)N1Cc2cc(NC(=O)[C@H]3C[C@@H](C(=O)N[C@@H]4CCCc5ccccc54)N(C(=O)[C@@H](NC(=O)[C@H](C)NC)C(C)(C)C)C3)ccc2C[C@H]1C(=O)N[C@@H]1CCCc2ccccc21)C(C)(C)C [Example 27, (2S,4S)-1-((S)-3,3-Dimethyl-2-((S)-2-(methylamino)propanamido)butanoyl)-N^4—((S)-2-((S)-3,3-dimethyl-2-((S)-2-(methylamino)propanamido)butanoyl)-3-(((R)-1,2,3,4-tetrahydronaphthalen-1-yl)carbamoyl)-1,2,3,4-tetrahydroisoquinolin-7-yl)-N^2—((R)-1,2,3,4-tetrahydronaphthalen-1-yl)pyrrolidine-2,4-dicarboxamide] |  |  | 9.00 | 8.30
CN[C@@H](C)C(=O)N[C@H](C(=O)N1C[C@@H](c2ccc3c(c2)CN(C(=O)[C@@H](NC(=O)[C@H](C)NC)C(C)(C)SCC(=O)NC(CO)CO)[C@H](C(=O)N[C@@H]2CCCc4ccccc42)C3)C[C@H]1C(=O)N[C@@H]1CCCc2ccccc21)C(C)(C)C [Example 31, (S)-2-((R)-3-((2-((1,3-Dihydroxypropan-2-yl)amino)-2-oxoethyl)thio)-3-methyl-2-((S)-2-(methylamino)propanamido)butanoyl)-7-((3R,5S)-1-((S)-3,3-dimethyl-2-((S)-2-(methylamino)propanamido)butanoyl)-5-(((R)-1,2,3,4-tetrahydronaphthalen-1-yl)carbamoyl)pyrrolidin-3-yl)-N-((R)-1,2,3,4-tetrahydronaphthalen-1-yl)-1,2,3,4-tetrahydroisoquinoline-3-carboxamide] | 8.92 | 7.86 |  | 
CN[C@@H](C)C(=O)N[C@H](C(=O)N1C[C@@H](c2ccc3c(c2)CN(C(=O)[C@@H](NC(=O)[C@H](C)NC)C(C)(C)C)[C@H](C(=O)N[C@@H]2CCOc4ccccc42)C3)C[C@H]1C(=O)N[C@@H]1CCCc2ccccc21)C(C)(C)C [Example 33, (S)—N—((R)—Chroman-4-yl)-2-((S)-3,3-dimethyl-2-((S)-2-(methylamino)propanamido)butanoyl)-7-((3R,5S)-1-((S)-3,3-dimethyl-2-((S)-2-(methylamino)propanamido)butanoyl)-5-(((R)-1,2,3,4-tetrahydronaphthalen-1-yl)carbamoyl)pyrrolidin-3-yl)-1,2,3,4-tetrahydroisoquinoline-3-carboxamide] | 8.77 | 8.74 |  | 
CN[C@@H](C)C(=O)N[C@H](C(=O)N1Cc2cc([C@H]3C[C@@H](C(=O)N[C@@H]4CCCc5ccccc54)N(C(=O)[C@@H](NC(=O)[C@H](C)NC)C(C)(C)C)C3)ccc2C[C@H]1C(=O)N[C@H](CO)Cc1ccccc1)C(C)(C)C [Example 34, (S)-2-((S)-3,3-Dimethyl-2-((S)-2-(methylamino)propanamido)butanoyl)-7-((3R,5S)-1-((S)-3,3-dimethyl-2-((S)-2-(methylamino)propanamido)butanoyl)-5-(((R)-1,2,3,4-tetrahydronaphthalen-1-yl)carbamoyl)pyrrolidin-3-yl)-N-((S)-1-hydroxy-3-phenylpropan-2-yl)-1,2,3,4-tetrahydroisoquinoline-3-carboxamide] | 8.15 | 8.32 |  | 

Second part, led by results:

pIC50 (XIAP BIR2-3; [1]) | pIC50 (XIAP BIR3; [2]) | SMILES | pIC50 (XIAP BIR2-3) | pIC50 (XIAP BIR3)
8.66 | 8.29 | CN[C@@H](C)C(=O)N[C@H](C(=O)N1C[C@@H](c2ccc3c(c2)CN(C(=O)[C@@H](NC(=O)[C@H](C)NC)C(C)(C)SCCO)[C@H](C(=O)N[C@@H]2CCCc4ccccc42)C3)C[C@H]1C(=O)N[C@@H]1CCCc2ccccc21)C(C)(C)C [Example 28, (S)-7-((3R,5S)-1-((S)-3,3-Dimethyl-2-((S)-2-(methylamino)propanamido)butanoyl)-5-(((R)-1,2,3,4-tetrahydronaphthalen-1-yl)carbamoyl)pyrrolidin-3-yl)-2-((R)-3-((2-hydroxyethyl)thio)-3-methyl-2-((S)-2-(methylamino)propanamido)butanoyl)-N—((R)-1,2,3,4-tetrahydronaphthalen-1-yl)-1,2,3,4-tetrahydroisoquinoline-3-carboxamide] |  | 
9.10 | 7.93 | CN[C@@H](C)C(=O)N[C@H](C(=O)N1C[C@@H](c2ccc3c(c2)CN(C(=O)[C@@H](NC(=O)[C@H](C)NC)C(C)(C)SCC(=O)NCCO)[C@H](C(=O)N[C@@H]2CCCc4ccccc42)C3)C[C@H]1C(=O)N[C@@H]1CCCc2ccccc21)C(C)(C)C [Example 29, (S)-7-((3R,5S)-1-((S)-3,3-Dimethyl-2-((S)-2-(methylamino)propanamido)butanoyl)-5-(((R)-1,2,3,4-tetrahydronaphthalen-1-yl)carbamoyl)pyrrolidin-3-yl)-2-((R)-3-((2-((2-hydroxyethyl)amino)-2-oxoethyl)thio)-3-methyl-2-((S)-2-(methylamino)propanamido)butanoyl)-N—((R)-1,2,3,4-tetrahydronaphthalen-1-yl)-1,2,3,4-tetrahydroisoquinoline-3-carboxamide] |  | 
8.24 | 8.41 | CN[C@@H](C)C(=O)N[C@H](C(=O)N1C[C@@H](c2ccc3c(c2)CN(C(=O)[C@@H](NC(=O)[C@H](C)NC)C(C)(C)SCC(=O)N(C)C)[C@H](C(=O)N[C@@H]2CCCc4ccccc42)C3)C[C@H]1C(=O)N[C@@H]1CCCc2ccccc21)C(C)(C)C [Example 30, (S)-7-((3R,5S)-1-((S)-3,3-Dimethyl-2-((S)-2-(methylamino)propanamido)butanoyl)-5-(((R)-1,2,3,4-tetrahydronaphthalen-1-yl)carbamoyl)pyrrolidin-3-yl)-2-((R)-3-((2-(dimethylamino)-2-oxoethyl)thio)-3-methyl-2-((S)-2-(methylamino)propanamido)butanoyl)-N-((R)-1,2,3,4-tetrahydronaphthalen-1-yl)-1,2,3,4-tetrahydroisoquinoline-3-carboxamide] |  | 
8.72 | 8.06 | CN[C@@H](C)C(=O)N[C@H](C(=O)N1CC(c2ccc3c(c2)CN(C(=O)[C@@H](NC(=O)[C@H](C)NC)C(C)(C)SCC(=O)O)[C@H](C(=O)NC2CCCc4ccccc42)C3)C[C@H]1C(=O)NC1CCCc2ccccc21)C(C)(C)C (stereo partly drawn) [Example 32, 2-(((R)-4-((S)-7-((3R,5S)-1-((S)-3,3-Dimethyl-2-((S)-2-(methylamino)propanamido)butanoyl)-5-(((R)-1,2,3,4-tetrahydronaphthalen-1-yl)carbamoyl)pyrrolidin-3-yl)-3-(((R)-1,2,3,4-tetrahydronaphthalen-1-yl)carbamoyl)-3,4-dihydroisoquinolin-2(1H)-yl)-2-methyl-3-((S)-2-(methylamino)propanamido)-4-oxobutan-2-yl)thio)acetic acid, 2TFA] |  | 

— patent US8889712B2, “IAP antagonists” (Bristol-Myers Squibb Company, priority 2012, dated 2014)
